# Test results taken from patent US9567318B2, “Substituted pyrimidine compounds and uses thereof” (Memorial Sloan-Kettering Cancer Center, priority 2009, dated 2017).
# Tested on: Kasumi-1 acute myeloid leukemia cells
# Experiment: Growth Inhibition Assay (Alamar blue), Kasumi-1
# Type: cell-based, human
# Details: Homo sapiens, Kasumi 1, 72 h, Kasumi-1 cells
# Procedure: The IC50 values listed for some of these compounds illustrate the antiproliferative effects of the subject compounds and were obtained using the Growth Inhibition assays described herein.
# Growth Inhibition Assay. Antiproliferative effects of inhibitors were evaluated using the dye Alamar blue. This reagent offers a rapid objective measure of cell viability in cell culture, and it uses the indicator dye resazurin to measure the metabolic capacity of cells, an indicator of cell viability. Briefly, cells were plated on Costar 96-well plates. For attached cells (such as SKBr3, MDA-MB-468, LNCaP, MRCS), 8,000 cells/well were used. For suspension cells (such as MOLM-13, Kasumi-1, OCI-Ly7, PBL), 20,000 cells/well were plated. Cells were allowed to incubate for 24 h at 37° C. before drug treatment. Drugs were added in triplicates at the indicated concentrations, and the plate was incubated for 72 h. Alamar Blue (440 μM) was added, and the plate read 6 h later using the Analyst GT (Fluorescence intensity mode, excitation 530 nm, emission 580 nm, with 560=dichroic mirror). Results were analyzed using the Softmax Pro software. The percentage cell growth inhibition was calculated by comparing fluorescence readings obtained from treated versus control cells, accounting for initial cell population (time zero).
row,Compound,IC50
1,"COc1nc(N2CCOCC2)nc(OC)c1Sc1nc(N)cc(N)n1 [YK11, 2-(4,6-dimethoxy-2-morpholinopyrimidin-5-ylthio)pyrimidine-4,6-diamine]",> 100 µM
2,"COc1nc(N)nc(OC)c1Sc1nccc(NC(C)=O)n1 [YK61, N-(2-(2-amino-4,6-dimethoxypyrimidin-5-ylthio)pyrimidin-4-yl)acetamide]",94.4 µM
3,"CCC(=O)Nc1cc(N)nc(Sc2c(OC)nc(N3CCN(CCO)CC3)nc2OC)n1 [YK14, N-(6-amino-2-(2-(4-(2-hydroxyethyl)piperazin-1-yl)-4,6-dimethoxypyrimidin-5-ylthio)pyrimidin-4-yl)propionamide]",> 100 µM
4,"CCC(=O)Nc1cc(N)nc(Sc2c(OC)nc(N3CCCCC3)nc2OC)n1 [YK16, N-(6-amino-2-(4,6-dimethoxy-2-(piperidin-1-yl)pyrimidin-5-ylthio)pyrimidin-4-yl)propionamide]",> 100 µM
5,"CCOc1nc(N2CCN(C)CC2)nc(OCC)c1Sc1nc(N)cc(NC(=O)C2CC2)n1 [YK33, N-(6-amino-2-(4,6-diethoxy-2-(4-methylpiperazin-1-yl)pyrimidin-5-ylthio)pyrimidin-4-yl)cyclopropanecarboxamide]",88.7 µM
6,"CCC(=O)Nc1cc(N)nc(Sc2c(OC)nc(N3CCN(C)CC3)nc2OC)n1 [YK13, N-(6-amino-2-(4,6-dimethoxy-2-(4-methylpiperazin-1-yl)pyrimidin-5-ylthio)pyrimidin-4-yl)propionamide]",> 100 µM
7,"COc1nc(N2CCN(C)CC2)nc(OC)c1Sc1nc(N)cc(N)n1 [YK2, 2-(4,6-dimethoxy-2-(4-methylpiperazin-1-yl)pyrimidin-5-ylthio)pyrimidine-4,6-diamine]",57.2 µM
8,"COc1nc(F)nc(OC)c1Sc1nccc(NC(C)=O)n1 [YK62, N-(2-(2-fluoro-4,6-dimethoxypyrimidin-5-ylthio)pyrimidin-4-yl)acetamide]",> 100 µM
9,"COc1nc(N2CCN(C)CC2)nc(OC)c1Sc1nccc(N)n1 [YK67, 2-(4,6-dimethoxy-2-(4-methylpiperazin-1-yl)pyrimidin-5-ylthio)pyrimidin-4-amine]",93.5 µM
10,"CCOc1nc(N2CCOCC2)nc(OCC)c1Sc1nc(N)cc(NC(=O)c2ccco2)n1 [YK49, N-(6-amino-2-(4,6-diethoxy-2-morpholinopyrimidin-5-ylthio)pyrimidin-4-yl)furan-2-carboxamide]",> 100 µM
11,"COc1nc(N2CCCCC2)nc(OC)c1Sc1nc(N)cc(N)n1 [YK12, 2-(4,6-dimethoxy-2-(piperidin-1-yl)pyrimidin-5-ylthio)pyrimidine-4,6-diamine]",> 100 µM
12,"CCC(=O)Nc1cc(N)nc(Sc2c(OC)nc(N3CCOCC3)nc2OC)n1 [YK15, N-(6-amino-2-(4,6-dimethoxy-2-morpholinopyrimidin-5-ylthio)pyrimidin-4-yl)propionamide]",> 100 µM
13,"COc1nc(N2CCCC2)nc(OC)c1Sc1nccc(NC(C)=O)n1 [YK66, N-(2-(4,6-dimethoxy-2-(pyrrolidin-1-yl)pyrimidin-5-ylthio)pyrimidin-4-yl)acetamide]",48.3 µM
14,"CCOc1nc(N2CCN(C)CC2)nc(OCC)c1Sc1nc(NC(C)=O)cc(NC(C)=O)n1 [YK29, N,N′-(2-(4,6-diethoxy-2-(4-methylpiperazin-1-yl)pyrimidin-5-ylthio)pyrimidine-4,6-diyl)diacetamide]",76.7 µM

# Stronger by IC50, values ahead:
row,IC50,Compound
1,15 µM,"COc1nc(N2CCN(C)CC2)nc(OC)c1Sc1nc(NC(C)=O)cc(NC(C)=O)n1 [YK1, N,N′-(2-(4,6-dimethoxy-2-(4-methylpiperazin-1-yl)pyrimidin-5-ylthio)pyrimidine-4,6-diyl)diacetamide]"
2,3 µM,"C=CC(=O)Nc1cc(N)nc(Sc2c(OC)nc(N3CCOCC3)nc2OC)n1 [YK18, N-(6-amino-2-(4,6-dimethoxy-2-morpholinopyrimidin-5-ylthio)pyrimidin-4-yl)acrylamide]"
3,15.7 µM,"COc1nc(N2CCOCC2)nc(OC)c1Sc1nccc(NC(C)=O)n1 [YK65, N-(2-(4,6-dimethoxy-2-morpholinopyrimidin-5-ylthio)pyrimidin-4-yl)acetamide]"
4,1.5 µM,"C=CC(=O)Nc1cc(N)nc(Sc2c(OC)nc(N)nc2OC)n1 [YK50, N-(6-amino-2-(2-amino-4,6-dimethoxypyrimidin-5-ylthio)pyrimidin-4-yl)acrylamide]"
5,14.7 µM,"COc1nc(N2CCCCC2)nc(OC)c1Sc1nccc(N)n1 [YK68, 2-(4,6-dimethoxy-2-(piperidin-1-yl)pyrimidin-5-ylthio)pyrimidin-4-amine]"
6,0.48 µM,"C=CC(=O)Nc1cc(N)nc(Sc2c(OCC)nc(N3CCN(C)CC3)nc2OCC)n1 [YK30, N-(6-amino-2-(4,6-diethoxy-2-(4-methylpiperazin-1-yl)pyrimidin-5-ylthio)pyrimidin-4-yl)acrylamide]"
7,11.2 µM,"COc1nc(N2CCN(C)CC2)nc(OC)c1Sc1nccc(NC(C)=O)n1 [YK63, N-(2-(4,6-dimethoxy-2-(4-methylpiperazin-1-yl)pyrimidin-5-ylthio)pyrimidin-4-yl)acetamide]"
8,12.3 µM,"CCCCCCCC(=O)Nc1cc(N)nc(Sc2c(OC)nc(N3CCOCC3)nc2OC)n1 [YK22, N-(6-amino-2-(4,6-dimethoxy-2-morpholinopyrimidin-5-ylthio)pyrimidin-4-yl)octanamide]"
9,4.8 µM,"C=CC(=O)Nc1cc(N)nc(Sc2c(OC)nc(N3CCN(CCOCCOCCOCCO)CC3)nc2OC)n1 [YK54, N-(6-amino-2-(2-(4-(2-(2-(2-(2-hydroxyethoxy)ethoxy)ethoxy)ethyl)piperazin-1-yl)-4,6-dimethoxypyrimidin-5-ylthio)pyrimidin-4-yl)acrylamide]"
10,25.2 µM,"COc1nc(N2CCCC2)nc(OC)c1Sc1nccc(N)n1 [YK70, 2-(4,6-dimethoxy-2-(pyrrolidin-1-yl)pyrimidin-5-ylthio)pyrimidin-4-amine]"
11,9.5 µM,"C=C(C)C(=O)Nc1ccnc(Sc2c(OC)nc(N3CCCC3)nc2OC)n1 [YK108, N-(2-(4,6-dimethoxy-2-(pyrrolidin-1-yl)pyrimidin-5-ylthio)pyrimidin-4-yl)methacrylamide]"
12,13.1 µM,"C=CC(=O)Nc1cc(N)nc(Sc2c(OC)nc(N3CCN(CCOCCOCCOCCOC(=O)CCCCC4SCC5NC(=O)NC54)CC3)nc2OC)n1 (stereo not drawn) [YK55, 2-(2-(2-(2-(4-(5-(4-acrylamido-6-aminopyrimidin-2-ylthio)-4,6-dimethoxypyrimidin-2-yl)piperazin-1-yl)ethoxy)ethoxy)ethoxy)ethyl 5-(2-oxohexahydro-1H-thieno[3,4-d]imidazol-4-yl)pentanoate]"
13,4 µM,"COc1nc(N2CCCCC2)nc(OC)c1Sc1nccc(NC(C)=O)n1 [YK64, N-(2-(4,6-dimethoxy-2-(piperidin-1-yl)pyrimidin-5-ylthio)pyrimidin-4-yl)acetamide]"
14,13.2 µM,"CCCCCCCC(=O)Nc1cc(N)nc(Sc2c(OC)nc(N3CCCCC3)nc2OC)n1 [YK23, N-(6-amino-2-(4,6-dimethoxy-2-(piperidin-1-yl)pyrimidin-5-ylthio)pyrimidin-4-yl)octanamide]"
15,2.5 µM,"C=CC(=O)Nc1cc(N)nc(Sc2c(OC)nc(N3CCCCC3)nc2OC)n1 [YK19, N-(6-amino-2-(4,6-dimethoxy-2-(piperidin-1-yl)pyrimidin-5-ylthio)pyrimidin-4-yl)acrylamide]"
16,16 µM,"C/C=C/C(=O)Nc1ccnc(Sc2c(C)nc(N3CCN(C)CC3)nc2C)n1 [YK87, (E)-N-(2-(4,6-dimethyl-2-(4-methylpiperazin-1-yl)pyrimidin-5-ylthio)pyrimidin-4-yl)but-2-enamide]"
